Assay [1] has as its system MRC5. The assay is described as follows: Induction of ATPIF-1 expression in human MRC5 cells […] after 24 hrs by immunoblotting analysis relative to control. The format is functional.
The subject of assay [2] is MRC5. The assay is described as follows: Induction of HO-1 expression in human MRC5 cells […] after 24 hrs by immunoblotting analysis relative to control. It is filed as functional. (In general: In western blotting, separated proteins are transferred to a membrane and probed.)
Assay [3] concerns MRC5. The assay is described as follows: Cytotoxicity against human MRC5 cells at 30 uM by MTT assay in presence of H2O2. It is filed as functional, cell-based.
The subject of assay [4] is HCT-116. The assay is described as follows: Cytotoxicity against human HCT116 cells at 10 to 50 uM after 24 to 48 hrs by MTT assay. The format is functional, cell-based.
Assay [5] concerns MRC5. The assay is described as follows: Cytotoxicity against human MRC5 cells by MTT assay in presence of H2O2. The format is functional, cell-based. (Tetrazolium assays rely on reduction of a dye to a coloured formazan, in cell work by metabolically active cells.)
Assay [6] relates to HT-29. The assay is described as follows: Induction of cellular energetics impairment in human HT-29 cells assessed as cellular ATP level by Cell Titre-Glo assay relative to vehicle-treated control. It is filed as functional.
Assay [7] has as its system HT-29. The assay is described as follows: Cytotoxicity against human HT-29 cells at 10 to 50 uM after 24 to 48 hrs by MTT assay. The format is functional, cell-based.
The test system of assay [8] is HCT-116. The assay is described as follows: Induction of cellular energetics impairment in human HCT116 cells assessed as cellular ATP level by Cell Titre-Glo assay relative to vehicle-treated control. The format is functional.
The subject of assay [9] is HT-29. The assay is described as follows: Cytotoxicity against human HT-29 cells at 30 uM after 24 hrs by MTT assay in presence of HO-1 inducer hemin. It is filed as functional, cell-based.
For assay [10], the system named is HCT-116. The assay is described as follows: Induction of mitochondrial morphology changes in human HCT116 cells assessed as swelling and damaged mitochondria by microscopic analysis. The format is functional, cell-based.
Assay [11] concerns HCT-116. The assay is described as follows: Induction of apoptosis in human HCT116 cells assessed as PARP cleavage at 20 uM after 48 hrs by Western blotting method. The format is functional, cell-based.
In assay [12] the test system is HT-29. The assay is described as follows: Cytotoxicity against human HT-29 cells at 20 uM after 24 to 48 hrs by MTT assay. The format is functional, cell-based.
Assay [13] deals with HT-29. The assay is described as follows: Induction of ATPIF-1 expression in human HT-29 cells at 20 uM after 48 hrs relative to vehicle-treated control. The format is functional, cell-based.
The subject of assay [14] is HCT-116. The assay is described as follows: Cytotoxicity against human HCT116 cells at 30 uM after 24 hrs by MTT assay in presence of HO-1 inhibitor siRNA. It is filed as functional, cell-based.
The test system of assay [15] is MRC5. The assay is described as follows: Induction of apoptosis in human MRC5 cells assessed as downregulation of Bcl-XL protein expression in presence of H2O2 by Western blotting method. It is filed as functional, cell-based.
For assay [16], the system named is HCT-116. The assay is described as follows: Cytotoxicity against human HCT116 cells at 30 uM after 24 hrs by MTT assay in presence of HO-1 inhibitor ZnPP. It is filed as functional, cell-based.
For assay [17], the system named is HT-29. The assay is described as follows: Induction of mitochondrial morphology changes in human HT-29 cells assessed as mitochondria with electron dense phenotype and well preserved cristae by microscopic analysis. The format is functional, cell-based.
In assay [18] the test system is HCT-116. The assay is described as follows: Cytotoxicity against human HCT116 cells after 24 to 48 hrs by MTT assay. The format is functional, cell-based.
For assay [19], the system named is HCT-116. The assay is described as follows: Cytotoxicity against human HCT116 cells at 20 uM after 24 to 48 hrs by MTT assay. The format is functional, cell-based.
The test system of assay [20] is HT-29. The assay is described as follows: Induction of mitochondrial morphology changes in human HT-29 cells assessed as lipid bodies near mitochondria by microscopic analysis. It is filed as functional, cell-based.
Assay [21] deals with MRC5. The assay is described as follows: Induction of apoptosis in human MRC5 cells assessed as downregulation of Bcl2 protein expression in presence of H2O2 by Western blotting method. The format is functional, cell-based.
Assay [22] deals with HCT-116. The assay is described as follows: Cytotoxicity against human HCT116 cells at 10 to 50 uM by MTT assay. The format is functional, cell-based. As to conditions: TDE = time-dependent effect.
In assay [23] the test system is HCT-116. The assay is described as follows: Induction of ATPIF-1 expression in human HCT116 cells at 20 uM after 48 hrs relative to vehicle-treated control. It is filed as functional, cell-based.

Calls of active or inactive are those of the source. The rule behind the calls is not given here.

With `C=C[C@@H](c1ccc(O)c(OC)c1)c1c(OC)cc(OC)c2c(=O)cc(-c3ccccc3)oc12`, the Ratio amounted to 2.3 in the assay on MRC5 [1] and 2.2 in the assay on MRC5 [2].
In the case of `C=C[C@@H](c1ccc(O)c(OC)c1)c1c(O)cc(O)c2c(=O)cc(-c3ccccc3)oc12`, the result in the assay on MRC5 [3] was Active. The figures for the Ratio in the assay on MRC5 [1] and with MRC5 [2] were 2.3 and 1.7, respectively.
Regarding `COc1cc(/C=C/COc2cc(OCc3ccccc3)c3c(=O)cc(-c4ccccc4)oc3c2)ccc1OCc1ccccc1`, the outcome in the assay on HCT-116 [4], in the assay with MRC5 [5], in the assay with MRC5 [3] and with HT-29 [7] was inactive. Further, the Activity with HT-29 [6] came out at 99.2%; in the assay with HCT-116 [8], 79.3%. Moreover, the results for the Ratio in the assay on MRC5 [1] and in the assay with MRC5 [2] were 1 and 3, respectively.
Turning to `C=C[C@@H](c1ccc(OC)c(OC)c1)c1c(O)cc(O)c2c(=O)cc(-c3ccccc3)oc12`, the Ratio was found to be 1.3 in the assay with MRC5 [1] and 1.6 in the assay on MRC5 [2].
Take `C=C[C@@H](c1ccc(OC)c(OC)c1)c1c(O)cc(OC)c2c(=O)cc(-c3ccccc3)oc12`: the values for the Ratio with MRC5 [1] and in the assay on MRC5 [2] were 1.9 and 1.1, respectively.
As to `C=C[C@@H](c1ccc(OCc2ccccc2)c(OC)c1)c1c(OCc2ccccc2)cc(OCc2ccccc2)c2c(=O)cc(-c3ccccc3)oc12`, the Ratio in the assay on MRC5 [1] stood at 2; in the assay on MRC5 [2] it was 0.6.
Take `C=C[C@@H](c1ccc(OC)cc1)c1c(O)cc(O)c2c(=O)cc(-c3ccccc3)oc12`: in the assay on MRC5 [5], the outcome was inactive. Also, the Ratio is on record as 1.8 in the assay with MRC5 [1] and 1.1 in the assay with MRC5 [2].
Turning to `C=C[C@@H](c1ccccc1)c1c(O)cc(O)c2c(=O)cc(-c3ccccc3)oc12`, the Ratio in the assay on MRC5 [1] stood at 1.5; in the assay on MRC5 [2], 2.4.
Turning to `C=C[C@@H](c1ccc(O)c(OC)c1)c1c(OC)cc(O)c2c(=O)cc(-c3ccccc3)oc12`, the result in the assay on HT-29 [9], with MRC5 [5], in the assay on HCT-116 [10], in the assay with HCT-116 [11], with HT-29 [12] and in the assay with HT-29 [13] was Active. Besides, the result in the assay with MRC5 [15], in the assay on HT-29 [17], in the assay with HCT-116 [19], in the assay with HT-29 [20], in the assay with MRC5 [21] and with HCT-116 [23] was Active. For the same molecule, the Activity with HT-29 [6] was 37.8%; in the assay with HCT-116 [18] it was “Dose-dependent effect”; in the assay on HCT-116 [22], “tde”; in the assay with HCT-116 [8], 37.3%. Besides, the result in the assay with HCT-116 [14] and in the assay on HCT-116 [16] was inactive. The Ratio in the assay on MRC5 [1] is given as 1.8; in the assay with MRC5 [2], 3.4.
Regarding `C=C[C@@H](c1ccc(OC)c(OC)c1)c1c(OC)cc(OC)c2c(=O)cc(-c3ccccc3)oc12`, the values for the Ratio in the assay with MRC5 [1] and with MRC5 [2] were 1.6 and 1.5, respectively.
Consider `C=C[C@@H](c1ccc(O)c(OC)c1)c1c(O)cc(O)c2c(=O)cc(-c3ccc(OC)cc3)oc12`, for which the Ratio came out at 1.4 in the assay on MRC5 [1] and 2.3 in the assay on MRC5 [2].
Regarding `C=C[C@@H](c1ccc(O)c(OC)c1)c1c(O)cc(OC)c2c(=O)cc(-c3ccccc3)oc12`, the Ratio in the assay on MRC5 [1] was determined as 1.6; with MRC5 [2], 1.8.
On to `C=C[C@@H](c1ccc(OC)c(OC)c1)c1c(OC)cc(O)c2c(=O)cc(-c3ccccc3)oc12`, for which the Ratio with MRC5 [1] is 2; with MRC5 [2] it was 2.2.
For the molecule `C=C[C@@H](c1ccc(OCc2ccccc2)c(OC)c1)c1c(O)cc(OCc2ccccc2)c2c(=O)cc(-c3ccccc3)oc12`, the figures for the Ratio in the assay on MRC5 [1] and with MRC5 [2] were 1.5 and 1.1, respectively.

The values above are taken from ChEMBL document CHEMBL3352240, “Upregulation of both heme oxygenase-1 and ATPase inhibitory factor 1 renders tumoricidal activity by synthetic flavonoids via depleting cellular ATP” (2014).
